Assays:
[1] = test system: fluorescently labelled DNA duplex 5′-[…]-3′; experiment: FRET DNA melting, FIG. 17 bottom sequence; assay type: binding; details: at higher concentrations; intra-strand cross-links
Excerpt: Further FRET DNA melting studies were undertaken on a number of molecules using three fluorescently labelled sequences. The sequences (FIG. 17) were designed to provide additional evidence that the series can form inter- and intrastrand cross-links. Inosines were inserted in place of traditional DNA bases in some cases to limit the number of binding sites available for the compounds to interact with. The short duplexes used in this FRET study are relatively unstable in the duplex form with a melting temperature below 30° C. so that, in the absence of ligand, a large part of the melting occurs below the starting temperature of the experiment. […] Increasing concentrations of 13 cause a greater amount of the melting transition to appear at the higher temperature (i.e. a greater number of the DNA molecules are cross-linked). […]
(§1) The reaction mixture was comprised of 4 μL of 250 mM phosphate buffer (final concentration of 50 mM), 4 μL flourophor and 4 μL quencher molecule of the appropriate oligonucleotide for a final concentration of 0.2 PM, 4 μL 5 M sodium chloride (final concentration of 1 M NaCl), and 4 μL of distilled H2O. […] This mixture was analysed without prior annealing.
(§2) Fluorescence melting profiles were measured using a Roche LightCycler using a total reaction volume of 20 μL. […] Annealing steps and melting steps were all recorded and changes in fluorescence were measured at 520 nm. […]

[2] = test system: SW620 cell line (gastric); experiment: MTT cytotoxicity assay, SW620; assay type: cell-based; details: Homo sapiens, SW-620; MTT assay, 72 hour incubation; read-out: Cytotoxicity SW620 (72 hours)
In short: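 Cells seeded at 1800/well in RPMI1640 + 10% FBS, adhered overnight, then exposed to compound 72 h at 37° C. Survival by MTT (500 μg/ml, 4 h), formazan in DMSO read at 540 nm, blank-corrected versus untreated wells; IC50 read from concentration–survival plot.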

[3] = test system: fluorescently labelled DNA duplex 5′-[…]-3′; experiment: FRET DNA melting, FIG. 13 top duplex (interstrand); assay type: binding
Excerpt: FRET DNA melting studies were undertaken on 13 using two fluorescently labelled sequences. The sequences (FIG. 13) were designed to provide additional evidence that 13 can form inter- and intrastrand cross-links. Inosines were inserted in place of traditional DNA bases to limit the number of binding sites available for 13 to interact with.
Oligonucleotides were obtained from ATDbio (Southampton, UK) in lyophilised form. They were labelled with a fluorophore molecule (F=fluorescein) at the 5′-end and a quencher molecule (Q=dabcyl) at the 3′-end of the complementary strand. Each oligonucleotide was dissolved in distilled H2O to form stock solutions of 100 PM. Working solutions of 5 μM were prepared by diluting the stock solution with distilled H2O. […]
as §1, §2

| Structure (SMILES) | Tm [1] [°C] | IC50 [2] [pM] | change of melting temperature with compound concentration ([3]; FIG. 14 top panel) | Tm value ([3]; duplex alone melts below 30° C., suggests interstrand cross-link) [°C] |
| --- | --- | --- | --- | --- |
| COc1cc2c(cc1OCc1cccc(CC(=O)N3C[C@@H](CCl)c4c3cc(O)c3ccccc43)c1)N=C[C@@H]1CCCCN1C2=O [Compound 42, (S)-3-((3-(2-((S)-1-(Chloromethyl)-5-hydroxy-1,2-dihydro-3H-benzo[e]indol-3-yl)-2-oxoethyl)benzyl)oxy)-2-methoxy-7,8,9,10-tetrahydrobenzo[e]pyrido[1,2-a][1,4]diazepin-12(6aH)-one] | ~80 | – | – | – |
| COc1cc2c(cc1OCCCC(=O)N1C[C@@H](CCl)c3c1cc(O)c1ccccc31)N=C[C@@H]1CCCCN1C2=O [Compound 13, (S)-3-(4-((S)-1-(Chloromethyl)-5-hydroxy-1,2-dihydro-3H-benzo[e]indol-3-yl)-4-oxobutoxy)-2-methoxy-7,8,9,10-tetrahydrobenzo[e]-pyrido[1,2-a][1,4]diazepin-12(6aH)-one] | – | 420 | increases significantly | ~65 |

Source: patent publication US20240002379A1, “ASYMMETRIC CONJUGATE COMPOUNDS” (Pheon Therapeutics Ltd., priority 2016, published 2024)
